Test results: patent publication EP4741387A1, “CRYSTAL FORM OF BIPYRIMIDINE COMPOUND, PREPARATION METHOD THEREFOR AND USE THEREOF” (Jiangsu Yahong Meditech Co., Ltd., priority 2023, dated 2025)
Converted amounts (≈) assume the structure as drawn. Marks after values point to notes of the source that are not given here.

How the values were obtained:
[1] = Solubility study of crystal form I; type: physicochemical; conditions: for solubility: thermodynamic from solid
Description: (§1) The HPLC for solubility and stability is carried out using a Phenomenex Luna C18 (2), 3 µm, 2X50 mm chromatographic column.
50 µL or 100 µL of the solvent shown in Table 6 was gradually added to 2 mg of crystal form I, and the resulting mixture was manually shaken, vortexed, or sonicated to dissolve. Addition of solvent was stopped if the concentration was below 1 mg/mL. The solubility was calculated based on the sample amount and the total amount of solvent added.

[2] = Dynamic vapor sorption (DVS); type: physicochemical
[3] = Stability to forced degradation (oxidative and alkali); type: physicochemical; conditions: 1 mg/mL in 90% acetonitrile
Description: as §1
3 mg of crystal form I was weighed to formulate a stock solution of 1 mg/mL with 3 mL of 90% acetonitrile. Stability subjected to oxidative degradation (degraded with 3% H2O2 at 40°C for 1.5 hours) and alkali degradation (degraded with 0.1 N NaOH at 40°C for 2 hours) was studied.

[4] = Stability subjected to temperature and humidity (LC analysis); type: physicochemical; conditions: solid powder, 30 days
Description: as §1
1 to 3 mg of crystal form I solid powder was weighed, and placed at 60°C or 60°C / 75% RH for 30 days. Samples were collected for LC study and analysis.

[5] = Stability subjected to temperature and humidity (XRPD of crystal form); type: physicochemical; conditions: solid powder, 30 days
Description: The instrument is Shimadzu XRD-6000, and the samples are scanned according to the following parameters: The ray source is Cu~Kα target (1.54056 Å).
In addition, an appropriate amount of crystal form I solid powder was weighed, and placed under stability conditions (40°C / 75% RH, 60°C / 75% RH) for 30 days. Samples were collected for XRPD.

[6] = Stability subjected to light (LC analysis); type: physicochemical
Description: as §1
An appropriate amount of crystal form I solid powder was weighed, and placed in a light-stabilized chamber to irradiate under ICH light intensity conditions (at least greater than 1.2*10^6 Lux*h, illuminance of 4500±500 Lux, and intensity of 200 w*hr/m^2). Samples were collected for LC study and analysis.

[7] = Trituration study of crystal form I (XRPD); type: physicochemical; conditions: manual trituration 1 min or 3 min, without solvent, with water or ethanol
Description: Approximately 50 mg of crystal form I was manually triturated in a mortar using the condition shown in Table 5, and XRPD was carried out to investigate the crystal form of the triturated solid.

[8] = Pharmacokinetic study of intragastric administration of suspension; type: in vivo; conditions: male SD rats, result in words
Description: Crystal form I was used in pharmacokinetic studies in rats. Twelve male SD rats were weighed before administration, and housed using standard feeding methods. Animals were housed in standard cages with free access to food and water during the study. Rats were intragastrically administered the suspension of crystal form I. 40 µL of blood was collected at each sampling point, and placed in an EDTA-containing anticoagulant tube. After centrifugation, 20 µL of plasma was collected. All samples were immediately frozen in a -80°C refrigerator after collection.

[9] = Solubility study of crystal form I; type: physicochemical; conditions: pH 7.4 phosphate buffer (37°C for 24 hours)

COc1cnc(-c2c(OC)ncnc2C2CC2)nc1NCC12CCC(c3nc(C(F)(F)F)cn3C)(CC1)CC2 [crystal form I, 4'-cyclopropyl-5,6'-dimethoxy-N-((4-(1-methyl-4-(trifluoromethyl)-1H-imidazol-2-yl)bicyclo[2.2.2]octan-1-yl)methyl)-[2,5'-bipyrimidin]-4-amine]
solubility ([1]; acetone, organic solvent or mixture): > 34.4 mg/mL
solubility ([1]; acetonitrile, organic solvent or mixture): 14.2 to 28.4 mg/mL (≈ 26.1 to 52.2 mM)
solubility ([1]; acetonitrile-water 9:1, organic solvent or mixture): > 32.4 mg/mL
solubility ([1]; ethyl acetate, organic solvent or mixture): 14.9 to 29.8 mg/mL (≈ 27.4 to 54.8 mM)
solubility ([1]; methanol, organic solvent or mixture): > 19.2 mg/mL
solubility ([1]; methanol-water 1:1, aqueous with cosolvent or surfactant or cyclodextrin): < 0.895 mg/mL
solubility ([1]; methanol-water 9:1, organic solvent or mixture): > 33.4 mg/mL
solubility in organic solvent ([1]; organic solvent, result in words): good solubility
solubility ([1]; pH 1.2 hydrochloric acid solution, pH 1.2, simulated gastric fluid): 8.45 to 16.9 mg/mL (≈ 15.5 to 31.1 mM)
hygroscopicity ([2]; DVS, result in words): non-hygroscopic
crystal form after DVS (XRPD) ([2]; XRPD before and after DVS): did not change
water absorption rate ([2]; from 0% RH to 95% RH, 25°C): 0.02%
degradation ([3]; alkali degradation: 0.1 NaOH at 40°C for 2 hour): only slight degradation
degradation ([3]; oxidative degradation: 3% H2O2 at 40°C for 1.5 hours): only slight degradation
change of content of the main component ([4]; 60°C / 75% RH): less than 0.2%
change of content of the main component ([4]; 60°C): less than 0.2%
crystal form change (XRPD) ([5]; 40°C / 75% RH): did not change its crystal form
crystal form change (XRPD) ([5]; 60°C / 75% RH): did not change its crystal form
photostability ([6]; ICH light conditions, result in words): photostable
change of content of the main component ([6]; solid powder, ICH light intensity conditions (>1.2*10^6 Lux*h, 200 w*hr/m^2)): less than 0.2%
crystal form after trituration (XRPD) [7]: all crystal form I
bioavailability [8]: high
exposure [8]: high
plasma concentration [8]: high
solubility at 24 h ([9]; aqueous buffer, thermodynamic from solid): 0.31 mg/mL (≈ 0.57 mM)
solubility [9]: 0.31 * mg/mL
